Read-outs that look alike come from different tables or passages of the source.
Assays:
[1] = tested on: A. baumannii IMI-2016; assay: MIC of antibiotics by serial dilution with or without FCCD; format: cell-based
[2] = tested on: K. pneumoniae IMI-2016; assay: as above; format: cell-based
[3] = tested on: P. aeruginosa IMI-2016; assay: as above; format: cell-based
Procedure: The study is carried out on P. aeruginosa strains given in the previous examples by in vitro serial dilution method using FCCD. Evaluate the decrease in resistance of Pseudomonas aeruginosa strains to amikacin and polymyxin. Prepare two rows of plates with Müller-Hinton nutrient medium: the first row contains various concentrations of the studied antibiotic (amikacin and polymyxin)—31, 62, 125, 250, 500 μg/ml of medium (double dilution). At the same time, prepare the same row of plates, but add FCCD additionally into the medium at a concentration of (0.0001-0.001) %. Inoculate 0.05 ml (drop) of each test strain on the plates from a bacterial suspension containing 10^8 […] according to the optic turbidity standard of 10 units. Müller-Hinton medium without antibiotic and Müller-Hinton medium containing 0.0001% of FCCD without antibiotic are used as controls. Inoculations are incubated at 37° C. for 48 hours. The results are considered by the value of MIC (minimum inhibitory concentration) with the obligatory growth of bacteria on control plates (see table 12).

[4] = tested on: P. Aeruginosa strains; assay: Antibiotic disc diffusion on Müller-Hinton agar with or without FCCD; format: cell-based, Pseudomonas aeruginosa; conditions: for sensitivity of bacteria to antibiotic disc (in words): discs added with additional passages, FCCD medium
Procedure: The studies are carried out in vitro by diffusion method on P. Aeruginosa strains indicated in previous experiments. Two rows of plates containing Müller-Hinton agar were prepared in parallel, with a 0.01-0.005% FCCD solution added to the second-row plates. After that, bacteria of the studied strains from a suspension containing 10^8 […] are inoculated on the surface of the agar. To do this, prepare a bacterial suspension corresponding to a concentration of 10^9 […] according to the optic turbidity standard of 10 units diluted with physiological salt solution 10 times (up to 10^8 μl/m1). […] Inoculations on plates with FCCD-free medium are used as controls, as well as media on which discs are not applied. Inoculations are incubated for 48 hours at 37° C. in one passage, then re-inoculation is carried out under similar conditions for the following passages. A total of 4 passages were carried out with controls. The results are taken into account by the diameter of the bacteria inhibition zones. On FCCD-free medium, there are no inhibition zones (an indicator of antibiotic resistance of bacteria), whereas on a medium containing 0.005-0.01% FCCD, a zone of bacterial growth inhibition from 25 to 40 mm in diameter forms around discs (appearance of sensitivity to antibiotic).
Growth inhibition zones were not observed for antibiotics Pseudomonas aeruginosa has genetically determined (initial) antibiotic resistance.

[5] = Acinetobacter baumannii, IMI2016, Control (without FCCD), read-out: MIC
[6] = Acinetobacter baumannii, IMI2016, with FCCD 0.001 % (first FCCD line), read-out: MIC
[7] = Acinetobacter baumannii, IMI2016, with FCCD 0.001 % (second FCCD line), read-out: MIC
[8] = Klebsiella pneumoniae, IMI2016, Control (without FCCD), read-out: MIC
[9] = Klebsiella pneumoniae, IMI2016, with FCCD 0,001 % (first FCCD line), read-out: MIC
[10] = Klebsiella pneumoniae, IMI2016, with FCCD 0,001 % (second FCCD line), read-out: MIC
[11] = Pseudomonas aeruginosa, IMI2016, Control (without FCCD), read-out: MIC
[12] = Pseudomonas aeruginosa, IMI2016, with FCCD 0.001 % (first FCCD line), read-out: MIC
[13] = Pseudomonas aeruginosa, IMI2016, with FCCD 0.001 % (second FCCD line), read-out: MIC
[14] = with FCCD 0.001 % (first FCCD line)
[15] = with FCCD 0.001 % (second FCCD line)
[16] = with FCCD 0,001 % (first FCCD line)
[17] = with FCCD 0,001 % (second FCCD line)

Row | Compound | MIC [1, 5] [µg/mL] | MIC [1, 6] [µg/mL] | MIC [1, 7] [µg/mL] | MIC [2, 8] [µg/mL] | MIC [2, 9] [µg/mL] | MIC [2, 10] [µg/mL] | MIC [3, 11] [µg/mL] | MIC [3, 12] [µg/mL] | MIC [3, 13] [µg/mL] | also measured
1 | CO/N=C(\C(=O)N[C@@H]1C(=O)N2C(C(=O)O)=C(CSc3nc(=O)c(=O)[nH]n3C)CS[C@H]12)c1csc(N)n1 [Ceftriaxone] | > 500 | 250 | 125 | > 500 | 125 | 250 | > 500 | 250 | 500 | –
2 | C[C@@H](O)[C@H]1C(=O)N2C(C(=O)O)=C(SCCN=CN)C[C@H]12 [Imipinem] | – | – | – | – | – | – | – | – | – | MIC ([1]; Control (without FCCD)): >500 µg/mL; MIC [1, 14]: 250 µg/mL; MIC [1, 15]: 31 µg/mL; MIC ([2]; Control (without FCCD)): >500 µg/mL; MIC [2, 16]: 250 µg/mL; MIC [2, 17]: 125 µg/mL; MIC ([3]; Control (without FCCD)): >500 µg/mL; MIC [3, 14]: 250 µg/mL; MIC [3, 15]: 125 µg/mL
3 | Cc1nnc(SCC2=C(C(=O)O)N3C(=O)[C@@H](NC(=O)Cn4cnnn4)[C@H]3SC2)s1 [cefazolin] | – | – | – | – | – | – | – | – | – | sensitivity of bacteria to antibiotic disc (in words) [4]: did not appear sensitive
4 | NCC[C@H](O)C(=O)N[C@@H]1C[C@H](N)[C@@H](O[C@H]2O[C@H](CN)[C@@H](O)[C@H](O)[C@H]2O)[C@H](O)[C@H]1O[C@H]1O[C@H](CO)[C@@H](O)[C@H](N)[C@H]1O [Amikacin] | > 500 | 15 | 125 | > 500 | 31 | 62 | > 500 | 15 | 125 | zone of bacterial growth inhibition around disc (in words) ([4]; FCCD-free medium): no zone of bacterial growth inhibition; zone of bacterial growth inhibition around disc (in words) ([4]; medium with (0.005-0.01)% FCCD): zone of bacterial growth inhibition appears; increase of sensitivity to antibiotic under FCCD ([3]; Pseudomonas aeruginosa): 33 times
5 | CC1(C)S[C@@H]2[C@H](NC(=O)[C@H](N)c3ccc(O)cc3)C(=O)N2[C@H]1C(=O)O [amoxicillin] | – | – | – | – | – | – | – | – | – | sensitivity of bacteria to antibiotic disc (in words) [4]: did not appear sensitive
6 | Polymyxin | – | – | – | – | – | – | – | – | – | zone of bacterial growth inhibition around disc (in words) ([4]; FCCD-free medium): no zone of bacterial growth inhibition; zone of bacterial growth inhibition around disc (in words) ([4]; medium with (0.005-0.01)% FCCD): zone of bacterial growth inhibition appears; MIC ([1]; Control (without FCCD)): >500 µg/mL; MIC [1, 14]: 31 µg/mL; MIC [1, 15]: 62 µg/mL; MIC ([2]; Control (without FCCD)): >500 µg/mL; MIC [2, 16]: 62 µg/mL; MIC [2, 17]: 125 µg/mL; MIC ([3]; Control (without FCCD)): 250 µg/mL; increase of sensitivity to antibiotic under FCCD ([3]; Pseudomonas aeruginosa): 16 times; MIC [3, 14]: 31 µg/mL; MIC [3, 15]: 125 µg/mL
7 | C[C@H]1COc2c(N3CCN(C)CC3)c(F)cc3c(=O)c(C(=O)O)cn1c23 [Levofloxacin] | > 500 | 125 | 62 | > 500 | 125 | 250 | > 500 | 125 | 250 | –
